Data as given in US20040248909A1, “Adenosine a1 receptor antagonist for treating hypoxia-induced learning memory impairment” (priority 2001, published 2004).

Key:
CA1 pyramidal cells [1] = experiment: Membrane response of CA1 pyramidal cells to local application of glutamate; type: cell-based, rat; settings: 20 μl of 10 mM
Procedure: (§1) Brain slices and electrophysiology. Male Sprague-Dawley rats (150-200 gm) were anesthetized with pentobarbital and the brains were removed and cooled rapidly in aCSF solution, bubbled continuously with 95% O2 and 5% CO2. Hippocampi were sliced ([…]) and placed in oxygenated aCSF (NaCl, 124 mM; KCl 3; MgSO4 1.3; CaCl2 2.4; NaHCO3 26; NaH2PO4 1.25; and glucose 10). The CA1 pyramidal cells were recorded at 30-31° C. with sharp electrodes (tip resistance: 60-120 MΩ). Study was performed on CA1 neurons with stable resting membrane potential more negative than −70 mV. Unless otherwise mentioned, test stimuli were applied at frequency of 1 per minute (0.017 Hz). Signals were amplified with AxoClamo-2B amplifier, digitized and stored using DigiData 1200 with the P-Clamp data collection and analysis software (Axon Instruments, Inc.).
(§2) Hypoxia. Episodes of hypoxia were induced by replacing the oxygen supply with 95% N2/5% O2/5% CO2 for 3 min or 95% N2/5% CO2 for 100 s. […]
(§3) The period of hypoxia is known to block synaptic transmission of glutarmatergic inputs^8, GABAergic input^8,10 and cholinergic inputs ^11,12, causing disconnection, or synaptic ‘arrest’, of CA1 neuronal network^8. […] Effects of brief hypoxia on synaptic transmission and of agents on hypoxic responses were monitored on responses of CA1 pyramidal cells to Sch activation. […]

CA1 pyramidal cells [2] = experiment: Sch-CA1 synaptic transmission (EPSPs) in hippocampal slices during brief hypoxia (synaptic arrest); type: cell-based, rat
Procedure: as §1, §2, §3

CA1 pyramidal cells [3] = experiment: Carbachol-induced cholinergic CA1 θ field potential and intracellular θ in hippocampal slices, with or without brief hypoxia; type: cell-based, rat
Procedure: as §1
Hypoxia. Episodes of hypoxia were induced by replacing the oxygen supply with […] for 3 min or 95% N2/5% CO2 for 100 s. […] The hypoxia is milder than those used by others to produce an irreversible impairment of synaptic transmission^25.
Effects of brief hypoxia on functions of CA1 neurons were monitored on synaptic transmission, long-term potentiation (LTP) of glutamatergic EPSPs, and cholinergic θ, a memory-related neuronal activity synchronization that depends on a temporal heterosynaptic interaction. Bath application of carbachol (50 μM, 20 min), a cholinergic receptor agonist, to hippocampal slices mimicked septal activation and diffuse acetylcholine transmission and induced CA1 θ field potential (FIG. 1a; peak amplitude: 0.73±0.02 mV, n=10, p<0.05, at 7.4±0.7 Hz from background noise). The θ is sensitive to atropine blockade and lasted for more than 3h^7. The θ oscillation of membrane potential (7.5±1.0 mV; n=18; p<0.05) was also observed in CA1 pyramidal cells (intracellular θ; FIG. 1b). […] LTP of responses to schaffer collateral (Sch) glutamatergic inputs (FIG. 1c,e), however, was not reduced, but enhanced, by the hypoxia (FIG. 1d,e), consistent with reported hypoxic LTP^8 and the observation that LTP expression is not vulnerable to transient hypoxia a few minutes after hypoxia.

hypoxia rats = experiment: Hidden-platform water maze spatial learning and memory in rats subjected to brief hypoxia; type: in vivo, rat; settings: bilateral i.c.v. 400 nmoles/site
Procedure: The figure illustrates experimental protocol (FIG. 4a), escape latency (means±SEM) in water maze training (FIG. 4b) across 12 trials (F11,312=50.14, p<0.0001), and quadrant preference (FIGS. 4c, 4d and 4e) conducted at the end of the twelfth training session, and swimming distance (in 1 min; FIG. 4f). Rats were either subjected to air or hypoxia (95% N2/5% CO2 for 100 s) about 30 min in a glass jar after the 2nd-or 4th trial of the day. Bilateral i.c.v. CPDPX (400 nmoles/site) or vehicle were administered before the 2nd and 4th trials of the day. Quadrant 4 is the target quadrant during training.
Spatial maze tasks. Male adult Wistar rats (200-250 gm) were anesthetized with sodium pentobarbital (60 mg/kg, i.p) and placed in a stereotactic apparatus (Kopf Instruments, Tujunga, Calif.). Two stainless steel guide cannulas were placed with the tips positioned at the coordinates (anterior-posterior, 0.5 mm; lateral, 1.5 mm; horizontal, 3.2 mm), under aseptic conditions. A 7-day recovery period was allowed before any further experimentation. All rats were randomly assigned to different groups (10 each) and swam for 2 min in a 1.5 m (diameter)×0.6 m (depth) pool (22±1° C.). […]
One of the most persistent consequences of transient hypoxia/ischemia is amnesia. Effects of brief hypoxia and CPDPX on spatial learning (FIG. 4a) were evaluated in rats, using a hidden-platform water maze. […]

adenosine A1 receptor = target: T1, adenosine A1 receptor (Rattus norvegicus, UniProt P25099); settings: cited from earlier work
T1 sequence (P25099 1-326): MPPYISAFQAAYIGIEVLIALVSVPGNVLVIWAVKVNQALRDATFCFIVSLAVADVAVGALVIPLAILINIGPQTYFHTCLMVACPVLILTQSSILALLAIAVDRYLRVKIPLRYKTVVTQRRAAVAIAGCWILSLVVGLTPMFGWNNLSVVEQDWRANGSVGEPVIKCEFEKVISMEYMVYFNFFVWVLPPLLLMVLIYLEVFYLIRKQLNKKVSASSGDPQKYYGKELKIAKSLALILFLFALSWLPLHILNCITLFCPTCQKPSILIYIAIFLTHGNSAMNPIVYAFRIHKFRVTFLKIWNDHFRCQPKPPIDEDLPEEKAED

N[C@@H](CCC(=O)O)C(=O)O [glutamate]
peak inward current, control value (CA1 pyramidal cells [1]; local application before hypoxia): 206.8±9.7 pA | peak inward current (CA1 pyramidal cells [1]; local application during last few seconds of 3 min hypoxia, n=7): 201.2±10.5 pA

CCCn1c(=O)c2[nH]c(C3CCCC3)nc2n(CCC)c1=O [CPDPX, 8-cyclopentyl-1,3-dipropylxanthine]
synaptic transmission at the end of the hypoxia versus control 100% (CA1 pyramidal cells [2]; Sch-CA1 EPSPs, brief hypoxia 5% O2 3 min, 10 μM, n=7, p>0.05): 99.2±2.4% | effect on hypoxic synaptic arrest (CA1 pyramidal cells [2]; end of 3 min hypoxia, citicoline 100 μM, 8-cyclopentyl-1,3-dipropylxanthine 10 μM): synaptic arrest was abolished | intracellular θ after brief hypoxia (versus pre-hypoxia) (CA1 pyramidal cells [3]; in presence of CPDPX, CA1 pyramidal cells, n=8, p>0.05): 99.6±3.0% | θ activity after brief hypoxia (versus pre-hypoxia) (CA1 pyramidal cells [3]; in presence of CPDPX, carbachol-induced CA1 θ, n=6, p>0.05): 100.2±3.2% | quadrant preference in quadrant test (hypoxia rats; 24 hrs after last training trial, F3,36=169.7, p<0.0001): showed a preference for the target quadrant | effect on hypoxic impairment of spatial memory (escape latency) (hypoxia rats; hypoxia 95% N2/5% CO2 100 s): eliminated hypoxic impairment on the spatial memory | effect on adenosine-mediation of anoxia induced synaptic glutamate release in CA1 pyramidal neurons (adenosine A1 receptor; Katchman et al. 1996): not affected | effect on hypoxia-induced accumulation of adenosine (adenosine A1 receptor; Pearson et al. 2000): mitigates hypoxia-induced accumulation of adenosine during hypoxia

C[N+](C)(C)CCOC(N)=O [carbachol]
frequency of induced CA1 θ field potential (CA1 pyramidal cells [3]; bath application 50 μM, 20 min): 7.4±0.7 Hz | induced CA1 θ field potential peak amplitude (CA1 pyramidal cells [3]; bath application 50 μM, 20 min, n=10): 0.73±0.02 mV | θ oscillation of membrane potential (intracellular θ) (CA1 pyramidal cells [3]; carbachol 50 μM, CA1 pyramidal cells, n=18): 7.5±1.0 mV
